Laboratory results: ChEMBL document CHEMBL5506024, “Multitarget μ-Opioid Receptor Agonists─Neuropeptide FF Receptor Antagonists Induce Potent Antinociception with Reduced Adverse Side Effects” (J Med Chem, 2024)
The source made the active and inactive calls.

How the values were obtained:
[1] = Induction of naltrexone-precipitated withdrawal syndrome in sc dosed C57BL/6N mouse assessed as wet dog shake counts administered for 8 days followed by naltrexone addition on day 9 after 2 hrs post last dose and measured after 30 mins; type: toxicity, organism-based; conditions: in vivo, 216.5 h, time 12990 min
[2] = biological target: Nociceptin receptor (Homo sapiens) (UniProt P41146); assay: Antagonist activity at human NOR expressed in HEK293 cells assessed as forskolin-induced cAMP accumulation in presence of IBMX; type: functional, cell-based; conditions: filed as antagonist
[3] = biological target: T1, Neuropeptide FF receptor 1 (Homo sapiens, UniProt Q9GZQ6); assay: Displacement of [125I]-1DMeNPFF from human NPFFR1 expressed in CHO cell membrane at 0.5 uM incubated for 1 hr by Topcount counting method relative to control; type: cell membranes; conditions: filed as antagonist
[4] = biological target: T2, Prolactin-releasing peptide receptor (Homo sapiens) (UniProt P49683); assay: Antagonist activity at human GPR10 expressed in CHO cells assessed as intracellular calcium release upto 10 uM by Fluo-4 AM dye based calcium mobilization assay; type: functional, cell-based
T2 sequence (whole entry): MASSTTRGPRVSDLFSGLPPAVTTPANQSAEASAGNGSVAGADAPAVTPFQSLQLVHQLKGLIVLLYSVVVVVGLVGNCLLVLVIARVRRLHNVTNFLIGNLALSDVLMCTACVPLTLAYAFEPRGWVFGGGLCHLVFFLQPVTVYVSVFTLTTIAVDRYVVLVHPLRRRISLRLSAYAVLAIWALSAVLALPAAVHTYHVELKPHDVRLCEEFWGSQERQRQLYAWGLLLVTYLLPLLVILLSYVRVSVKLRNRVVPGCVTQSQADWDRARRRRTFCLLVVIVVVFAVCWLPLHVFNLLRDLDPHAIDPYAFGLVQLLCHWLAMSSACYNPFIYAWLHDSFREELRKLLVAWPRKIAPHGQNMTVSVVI

Mu-type opioid receptor [5] = biological target: T3, Mu-type opioid receptor (Homo sapiens, UniProt P35372); assay: Agonist activity at human MOP expressed in HEK293 cells coexpressing GloSensor-20F assessed as inhibition of forskolin-induced cAMP accumulation relative to control; type: functional, cell-based; conditions: filed as agonist
[6] = biological target: T4, Neuropeptide FF receptor 2 (Homo sapiens, UniProt Q9Y5X5); assay: Displacement of [125I]-1DMeNPFF from human NPFFR2 expressed in CHO cell membrane at 0.05 uM incubated for 1 hr by Topcount counting method relative to control; type: cell membranes; conditions: filed as antagonist
Mus musculus [7] = assay: Antinociceptive activity in mouse at 2.5 to 10 mg/kg, sc measured after 6 hrs by tail immersion test; type: functional, organism-based; conditions: dose 2.5-10 mg/kg
[8] = biological target: KiSS-1 receptor (Homo sapiens) (UniProt Q969F8); assay: Agonist activity at human GPR54 expressed in CHO cells assessed as intracellular calcium release upto 10 uM by Fluo-4 AM dye based calcium mobilization assay; type: functional, cell-based
[9] = biological target: T1, Neuropeptide FF receptor 1; assay: Antagonist activity at human NPFFR1 expressed in CHO cell membrane assessed as inhibition of NPVF induced cAMP response at 5 uM incubated for 1 hr by Topcount counting method relative to control; type: functional, cell membranes; parameters: scale not given: the % may be the effect or the level left; conditions: filed as antagonist
Mu-type opioid receptor [10] = biological target: T3, Mu-type opioid receptor; assay: Agonist activity at human Rluc8-tagged MOP expressed in HEK293 cells coexpressing eYFP-tagged beta-arrestin-2 assessed as beta-arrestin-2 recruitment incubated for 5 mins by luminometer analysis; type: functional, cell-based; conditions: read-out: EC50
[11] = Drug concentration in mouse plasma at 10 mg/kg, sc measured after 2 hrs by LC-MS/MS analysis; type: ADME, organism-based
[12] = Induction of naltrexone-precipitated withdrawal syndrome in sc dosed C57BL/6N mouse assessed as high jumping score administered for 8 days followed by naltrexone addition on day 9 after 2 hrs post last dose and measured after 30 mins; type: toxicity, organism-based; conditions: in vivo, 216.5 h, time 12990 min
[13] = biological target: KiSS-1 receptor (Homo sapiens) (UniProt Q969F8); assay: Antagonist activity at human GPR54 expressed in CHO cells assessed as intracellular calcium release upto 10 uM by Fluo-4 AM dye based calcium mobilization assay; type: functional, cell-based
Mus musculus [14] = assay: Antinociceptive activity in mouse at 4.2 umol/kg, sc administered chronically and measured on day 8; type: functional, organism-based; conditions: dose 4.2 µmol/kg
[15] = Half life in mouse at 10 mg/kg, sc measured upto 24 hrs by LC-MS/MS analysis; type: ADME, organism-based; conditions: in vivo
[16] = biological target: Kappa-type opioid receptor (Homo sapiens, UniProt P41145); assay: Antagonist activity at human KOR expressed in HEK293 cells assessed as forskolin-induced cAMP accumulation in presence of IBMX; type: functional, cell-based; conditions: read-out: pA2 (converted)
[17] = biological target: Delta-type opioid receptor (Homo sapiens) (UniProt P41143); assay: Agonist activity at human DOP expressed in HEK293 cells assessed as inhibition of forskolin-induced cAMP accumulation; type: functional, cell-based; conditions: filed as agonist
Mus musculus [18] = assay: Antinociceptive activity in mouse at 4.2 umol/kg, sc administered chronically and measured on day 1; type: functional, organism-based; conditions: dose 4.2 µmol/kg
[19] = biological target: T4, Neuropeptide FF receptor 2; assay: Antagonist activity at human NPFFR2 expressed in CHO cell membrane assessed as inhibition of NPVF induced cAMP response at 5 uM incubated for 1 hr by Topcount counting method relative to control; type: functional, cell membranes; parameters: scale not given: the % may be the effect or the level left; conditions: filed as antagonist
[20] = biological target: T5, Pyroglutamylated RF-amide peptide receptor (Homo sapiens) (UniProt Q96P65); assay: Antagonist activity at human GPR103 expressed in CHO cells assessed as intracellular calcium release upto 10 uM by Fluo-4 AM dye based calcium mobilization assay; type: functional, cell-based
T5 sequence (whole entry): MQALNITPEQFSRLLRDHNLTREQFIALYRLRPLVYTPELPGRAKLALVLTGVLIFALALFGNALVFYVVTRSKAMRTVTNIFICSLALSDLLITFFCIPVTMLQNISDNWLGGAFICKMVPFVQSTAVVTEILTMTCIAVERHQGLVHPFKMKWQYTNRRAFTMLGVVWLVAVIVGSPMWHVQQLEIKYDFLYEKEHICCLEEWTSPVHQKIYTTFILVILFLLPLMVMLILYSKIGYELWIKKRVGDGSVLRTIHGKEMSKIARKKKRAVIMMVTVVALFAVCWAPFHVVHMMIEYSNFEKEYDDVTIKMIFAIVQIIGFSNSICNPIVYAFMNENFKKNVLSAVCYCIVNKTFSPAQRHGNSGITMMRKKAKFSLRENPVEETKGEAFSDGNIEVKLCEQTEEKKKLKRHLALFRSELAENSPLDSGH

[21] = biological target: T5, Pyroglutamylated RF-amide peptide receptor (Homo sapiens); assay: Agonist activity at human GPR103 expressed in CHO cells assessed as intracellular calcium release upto 10 uM by Fluo-4 AM dye based calcium mobilization assay; type: functional, cell-based
[22] = biological target: T2, Prolactin-releasing peptide receptor (Homo sapiens); assay: Agonist activity at human GPR10 expressed in CHO cells assessed as intracellular calcium release upto 10 uM by Fluo-4 AM dye based calcium mobilization assay; type: functional, cell-based
[23] = Induction of naltrexone-precipitated withdrawal syndrome in sc dosed C57BL/6N mouse assessed as paw tremor administered for 8 days followed by naltrexone addition on day 9 after 2 hrs post last dose and measured after 30 mins; type: toxicity, organism-based; conditions: in vivo, 216.5 h, time 12990 min
[24] = Toxicity in C57BL/6N mouse assessed as induction of respiratory depression by measuring decrease in pulmonary rate at 4 to 36 mg/kg, sc by plethysmography; type: organism-based; conditions: in vivo, dose 4-36 mg/kg
[25] = biological target: T1, Neuropeptide FF receptor 1; assay: Displacement of [125I]-1DMeNPFF from human NPFFR1 expressed in CHO cell membrane incubated for 1 hr by Topcount counting method; type: cell membranes
Mu-type opioid receptor [26] = biological target: T3, Mu-type opioid receptor; assay: Agonist activity at human MOP expressed in HEK293 cells coexpressing GloSensor-20F assessed as inhibition of forskolin-induced cAMP accumulation; type: functional, cell-based
[27] = Cmax in mouse at 10 mg/kg, sc measured upto 24 hrs by LC-MS/MS analysis; type: ADME, organism-based; conditions: in vivo
[28] = biological target: T1, Neuropeptide FF receptor 1; assay: Antagonist potency at human NPFFR1 expressed in CHO cell membrane assessed as inhibition of NPVF induced cAMP response incubated for 1 hr by Topcount counting method; type: functional, cell membranes; conditions: read-out: pA2 (converted)
Mus musculus [29] = assay: Antinociceptive activity in mouse at 4.2 umol/kg, sc administered daily and measured on day 1 and 8; type: functional, organism-based; conditions: dose 4.2 µmol/kg
Mu-type opioid receptor [30] = biological target: T3, Mu-type opioid receptor; assay: Agonist activity at human Rluc8-tagged MOP expressed in HEK293 cells coexpressing eYFP-tagged beta-arrestin-2 assessed as beta-arrestin-2 recruitment incubated for 5 mins by luminometer analysis relative to control; type: functional, cell-based
[31] = biological target: T4, Neuropeptide FF receptor 2; assay: Displacement of [125I]-1DMeNPFF from human NPFFR2 expressed in CHO cell membrane incubated for 1 hr by Topcount counting method; type: cell membranes
[32] = biological target: T4, Neuropeptide FF receptor 2; assay: Antagonist potency at human NPFFR2 expressed in CHO cell membrane assessed as inhibition of NPVF induced cAMP response incubated for 1 hr by Topcount counting method; type: functional, cell membranes; conditions: read-out: pA2 (converted)
[33] = Tmax in mouse at 10 mg/kg, sc measured upto 24 hrs by LC-MS/MS analysis; type: ADME, organism-based; conditions: in vivo
[34] = Induction of motor coordination impairment in C57BL/6 mouse at 12 mg/kg, sc by rotarod assay; type: toxicity, organism-based; conditions: in vivo
[35] = Induction of naltrexone-precipitated withdrawal syndrome in sc dosed C57BL/6N mouse assessed as diarrhea administered for 8 days followed by naltrexone addition on day 9 after 2 hrs post last dose and measured after 30 mins; type: toxicity, organism-based; conditions: in vivo, 216.5 h, time 12990 min
[36] = Induction of naltrexone-precipitated withdrawal syndrome in sc dosed C57BL/6N mouse assessed as vegetative signs administered for 8 days followed by naltrexone addition on day 9 after 2 hrs post last dose and measured after 30 mins; type: toxicity, organism-based; conditions: in vivo, 216.5 h, time 12990 min
[37] = Toxicity in sc dosed C57BL/6N mouse assessed as induction of respiratory depression by measuring decrease in pulmonary rate by plethysmography; type: organism-based; conditions: in vivo
Mus musculus [38] = assay: Antinociceptive activity in mouse at 4.2 umol/kg, sc measured after 6 hrs in presence of naloxone methiodide by tail immersion test; type: functional, organism-based; conditions: dose 4.2 µmol/kg
Mus musculus [39] = assay: Antinociceptive activity in mouse at 10 mg/kg, sc administered daily and measured on day 8; type: functional, organism-based
[40] = Induction of naltrexone-precipitated withdrawal syndrome in sc dosed C57BL/6N mouse assessed as somatic signs administered for 8 days followed by naltrexone addition on day 9 after 2 hrs post last dose and measured after 30 mins; type: toxicity, organism-based; conditions: in vivo, 216.5 h, time 12990 min
Mus musculus [41] = assay: Antinociceptive activity in mouse assessed as basal nociceptive threshold at 10 mg/kg, sc administered daily and measured on day 2 to 7; type: functional, organism-based
Mus musculus [42] = assay: Antinociceptive activity in mouse at 10 mg/kg, sc measured after 6 hrs in presence of naloxone methiodide by tail immersion test; type: functional, organism-based

T4 sequence (Q9Y5X5 whole entry): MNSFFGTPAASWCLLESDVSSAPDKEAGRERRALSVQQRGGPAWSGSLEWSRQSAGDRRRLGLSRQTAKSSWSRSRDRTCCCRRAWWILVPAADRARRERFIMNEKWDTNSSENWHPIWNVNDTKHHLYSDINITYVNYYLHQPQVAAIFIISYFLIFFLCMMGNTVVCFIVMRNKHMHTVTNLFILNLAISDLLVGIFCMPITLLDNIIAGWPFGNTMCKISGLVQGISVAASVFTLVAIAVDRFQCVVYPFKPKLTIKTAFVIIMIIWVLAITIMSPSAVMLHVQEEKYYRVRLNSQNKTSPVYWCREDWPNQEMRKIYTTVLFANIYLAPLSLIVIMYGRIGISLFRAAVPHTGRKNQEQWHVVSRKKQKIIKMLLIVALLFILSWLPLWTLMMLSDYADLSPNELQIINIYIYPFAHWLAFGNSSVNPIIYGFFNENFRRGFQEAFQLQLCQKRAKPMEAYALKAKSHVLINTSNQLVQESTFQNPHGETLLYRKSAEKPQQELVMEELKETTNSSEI
T1 sequence (Q9GZQ6 whole entry): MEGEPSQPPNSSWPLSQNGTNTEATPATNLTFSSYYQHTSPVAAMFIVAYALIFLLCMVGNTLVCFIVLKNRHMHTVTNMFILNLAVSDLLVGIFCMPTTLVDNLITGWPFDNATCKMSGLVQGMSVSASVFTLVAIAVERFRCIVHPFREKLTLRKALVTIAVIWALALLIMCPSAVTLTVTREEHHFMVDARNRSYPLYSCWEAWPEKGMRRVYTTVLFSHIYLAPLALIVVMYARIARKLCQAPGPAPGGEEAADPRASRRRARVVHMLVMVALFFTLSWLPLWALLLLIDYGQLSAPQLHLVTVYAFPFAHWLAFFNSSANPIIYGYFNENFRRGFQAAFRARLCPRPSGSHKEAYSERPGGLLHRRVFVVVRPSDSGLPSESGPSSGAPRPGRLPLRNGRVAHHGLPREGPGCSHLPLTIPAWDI
T3 sequence (P35372 whole entry): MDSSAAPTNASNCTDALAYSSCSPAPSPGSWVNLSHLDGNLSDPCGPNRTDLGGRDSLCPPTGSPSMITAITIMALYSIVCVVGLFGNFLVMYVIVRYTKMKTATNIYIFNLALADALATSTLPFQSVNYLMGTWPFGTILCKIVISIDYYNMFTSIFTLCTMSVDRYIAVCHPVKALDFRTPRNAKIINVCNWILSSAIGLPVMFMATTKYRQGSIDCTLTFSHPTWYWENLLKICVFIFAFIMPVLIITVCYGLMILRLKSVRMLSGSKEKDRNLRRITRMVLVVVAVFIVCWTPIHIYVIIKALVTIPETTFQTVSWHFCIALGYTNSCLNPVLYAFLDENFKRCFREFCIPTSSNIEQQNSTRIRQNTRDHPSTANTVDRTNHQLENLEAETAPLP
Chain of KiSS-1 receptor (Homo sapiens) (Q969F8 whole entry): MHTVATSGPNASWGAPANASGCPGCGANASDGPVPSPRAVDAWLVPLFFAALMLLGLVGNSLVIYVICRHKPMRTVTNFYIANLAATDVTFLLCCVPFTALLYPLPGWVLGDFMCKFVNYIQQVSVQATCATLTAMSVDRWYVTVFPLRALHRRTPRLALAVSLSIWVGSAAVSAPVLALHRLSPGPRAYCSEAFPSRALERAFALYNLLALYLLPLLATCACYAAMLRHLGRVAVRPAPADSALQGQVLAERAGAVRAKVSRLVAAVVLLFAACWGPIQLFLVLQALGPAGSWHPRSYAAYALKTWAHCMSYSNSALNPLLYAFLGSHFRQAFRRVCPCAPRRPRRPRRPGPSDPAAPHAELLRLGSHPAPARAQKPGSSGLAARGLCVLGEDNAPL
Chain of Nociceptin receptor (Homo sapiens) (P41146 whole entry): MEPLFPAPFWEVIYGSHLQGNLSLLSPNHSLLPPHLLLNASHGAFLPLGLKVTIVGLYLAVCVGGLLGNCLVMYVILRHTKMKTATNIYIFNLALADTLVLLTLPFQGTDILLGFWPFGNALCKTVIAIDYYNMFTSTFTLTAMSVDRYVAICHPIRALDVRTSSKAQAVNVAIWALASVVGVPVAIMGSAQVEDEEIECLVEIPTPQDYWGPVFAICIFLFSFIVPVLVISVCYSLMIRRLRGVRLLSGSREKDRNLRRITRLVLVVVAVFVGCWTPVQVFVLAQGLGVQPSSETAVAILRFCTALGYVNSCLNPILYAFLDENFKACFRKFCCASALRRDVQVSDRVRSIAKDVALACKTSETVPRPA
Chain of Kappa-type opioid receptor (P41145 whole entry): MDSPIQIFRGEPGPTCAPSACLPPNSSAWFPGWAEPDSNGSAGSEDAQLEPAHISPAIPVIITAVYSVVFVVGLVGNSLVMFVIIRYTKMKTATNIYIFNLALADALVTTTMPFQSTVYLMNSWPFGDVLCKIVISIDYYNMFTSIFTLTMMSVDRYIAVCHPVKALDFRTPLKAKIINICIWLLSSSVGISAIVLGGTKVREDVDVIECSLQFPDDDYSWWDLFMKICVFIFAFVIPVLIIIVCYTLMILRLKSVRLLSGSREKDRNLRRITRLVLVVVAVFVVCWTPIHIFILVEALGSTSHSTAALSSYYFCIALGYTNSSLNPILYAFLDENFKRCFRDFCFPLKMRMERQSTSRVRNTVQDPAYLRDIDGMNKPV
Chain of Delta-type opioid receptor (Homo sapiens) (P41143 whole entry): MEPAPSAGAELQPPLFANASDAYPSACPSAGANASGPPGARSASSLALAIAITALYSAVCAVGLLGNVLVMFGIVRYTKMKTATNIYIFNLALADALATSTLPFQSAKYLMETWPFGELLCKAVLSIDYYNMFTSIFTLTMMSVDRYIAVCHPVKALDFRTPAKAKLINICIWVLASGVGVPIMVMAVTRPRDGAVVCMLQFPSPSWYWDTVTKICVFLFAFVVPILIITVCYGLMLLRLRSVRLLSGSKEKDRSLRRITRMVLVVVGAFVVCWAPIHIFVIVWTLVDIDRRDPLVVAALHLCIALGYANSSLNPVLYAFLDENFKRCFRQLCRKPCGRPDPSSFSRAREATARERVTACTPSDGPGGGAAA

## Cc1cc(O)cc(C)c1C[C@H](NC(=N)N)C(=O)N[C@H](CCCNC(=N)N)C(=O)N[C@H]1Cc2ccccc2CN(CCC(=O)N[C@@H](CCCN2CCC(Cc3ccccc3)CC2)C(=O)N[C@@H](Cc2ccccc2)C(N)=O)C1=O
[1]
  Activity: Non-Toxic
[2]
  Activity: Active
[3]
  Activity: 93%
[4]
  Activity: inactive
Mu-type opioid receptor [5]
  Emax: 66%
[6]
  Activity: 91%
Mus musculus [7]
  Activity: Active
[8]
  Activity: inactive
[9]
  Activity: 65%
Mu-type opioid receptor [10]
  EC50: 119 nM
[11]
  concentration at 2 h: 593 nM
[12]
  Activity: Toxic
[13]
  Activity: inactive
Mus musculus [14]
  Activity: inactive
[15]
  half-life: 3.1 h
[16]
  Kb: 0.331 nM
[17]
  Activity: Active
Mus musculus [18]
  Activity: Active
[19]
  Activity: 71%
[20]
  Activity: inactive
[21]
  Activity: inactive
[22]
  Activity: inactive
[23]
  Activity: Non-Toxic
[24]
  Activity: Non-Toxic
[25]
  Ki: 75 nM
Mu-type opioid receptor [26]
  EC50: 9.9 nM
[27]
  Cmax: 887 nM
[28]
  Kb: 240 nM
Mus musculus [29]
  Activity: Active
Mu-type opioid receptor [30]
  Emax: 15%
[31]
  Ki: 4.7 nM
[32]
  Kb: 110 nM
[33]
  Tmax: 1.67 h
[34]
  Activity: Non-Toxic
[35]
  Activity: Non-Toxic

## CN1CC[C@]23c4c5ccc(O)c4O[C@H]2[C@@H](O)C=C[C@H]3[C@H]1C5 [MORPHINE]
[36]
  Activity: Toxic
[37]
  Activity: Dose-Dependent Effect
Mus musculus [38]
  Activity: inactive
Mus musculus [39]
  Activity: inactive
[40]
  Activity: Toxic
Mus musculus [41]
  Activity: inactive
Mus musculus [42]
  Activity: inactive
